Values joined by “and” are separate entries in the source; they are usually repeats but may differ in a detail not shown here. Identical values can stand only once.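 Protocol summary: plate cells (96-well), add compound at 5 concentrations, incubate 48 h, interpolate endpoints linearly. GI50 is the concentration that inhibits growth by half. TGI is the concentration that stops growth completely.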
What was measured:
Assay in all cases: inhibition of tumour cell growth, NCI panel, 48 h
[1] = tested on: DU-145 prostate
[2] = tested on: EKVX NSCLC
[3] = tested on: OVCAR-8 ovarian
[4] = tested on: OVCAR-3 ovarian
[5] = tested on: SN12C renal
[6] = tested on: OVCAR-5 ovarian
[7] = tested on: A549 NSCLC
[8] = tested on: MALME-3M melanoma
[9] = tested on: BT-549 breast
[10] = tested on: CAKI-1 renal

SMILES	GI50 [1] [µM]	TGI [1]	GI50 [2] [µM]	TGI [2]	GI50 [3] [µM]	TGI [3]	GI50 [4] [µM]	TGI [4] [µM]	GI50 [5] [µM]	TGI [5]	GI50 [6] [µM]	TGI [6]	GI50 [7] [µM]	TGI [7]	GI50 [8] [µM]	TGI [8] [µM]	GI50 [9] [µM]	TGI [9]	TGI [10]	GI50 [10] [µM]
CN1c2ccccc2C(C)(C)C12CC(c1ccc(Cl)c(S(=O)(=O)N3CCCC3)c1)=NO2 (stereo not given)	> 100	> 100 µM	> 100	> 100 µM	> 100	> 100 µM	> 100	> 100	> 100	> 100 µM	> 100	> 100 µM	> 100	> 100 µM	> 100	> 100	> 100	> 100 µM	–	–
CC(C)(CCC(C)(C)c1ccccc1)c1ccccc1	–	38.5 µM	–	32.4 µM	–	75.9 µM	–	31	–	32.7 µM	–	33.5 µM	–	> 100 µM	–	30	–	37.2 µM	48.2 µM	–
COc1ccc(-c2c(C#N)c(N)nc3c2CCCc2ccc(F)cc2-3)cc1OC	0.0164	15.7 µM	0.0861	–	0.419	> 100 µM	< 0.01	–	< 0.0499	4.75 µM	8.97	> 100 µM	0.174	> 54 µM	< 0.01	–	0.556	26.2 µM	35.1 µM	0.0241
COC(=O)[C@H](Cc1ccccc1)NC(=O)[C@@H](OC)[C@@H]1Cc2cc3cc(OC4CC(OC5CC(O)C(O)C(C)O5)C(O)C(C)O4)c(C)c(O)c3c(O)c2C(=O)[C@H]1OC1CC(OC2CC(OC3CC(C)(O)C(O)C(C)O3)C(O)C(C)O2)C(O)C(C)O1 (stereo not given in full)	0.0286	> 14.3 µM	0.0393	> 14.3 µM	0.0108	> 14.3 µM	0.0142	0.0793	0.00991	> 14.3 µM	0.0396	> 14.3 µM	0.0532	> 14.3 µM	0.00693	0.0287	0.00713	0.0574 µM	> 14.3 µM	0.0416
COc1ccc(C(=O)N/N=C/c2ccc(O)cc2O)cc1Nc1ccnc(C(F)(F)F)c1	0.622	15.2 µM	0.482	27.9 µM	0.919	> 71.2 µM	0.317	17.8	1.15	> 47 µM	1.16	33 µM	5.11	> 53.9 µM	0.891	> 26.7	0.916	23.8 µM	15.2 µM	0.984
C#CC#CC#CC#CC#CC#CC#CC#CCC1OC[C@H](COC(=O)O[C@@H](C(=O)O[C@H]2C[C@@]3(O)[C@@H](OC(=O)c4ccccc4)[C@@H]4[C@]5(OC(C)=O)CO[C@@H]5C[C@H](O)[C@@]4(C)C(=O)[C@H](OC(C)=O)C(=C2C)C3(C)C)[C@@H](NC(=O)c2ccccc2)c2ccccc2)O1 (stereo not given in full)	0.228	> 33.3 µM	> 33.3	> 33.3 µM	0.561	> 33.3 µM	0.17	> 33.3	1.34	> 33.3 µM	0.554	> 33.3 µM	0.295	> 33.3 µM	1.16	> 33.3	1.01	> 33.3 µM	> 33.3 µM	1.4
COc1ccc2c(c1)C(=O)c1c-2n(CCCCl)c(=O)c2cc(N(C)C)ccc12	> 100	> 100 µM	> 100	> 100 µM	42.5	> 100 µM	> 100	> 100	49.8	> 100 µM	> 100	> 100 µM	> 100	> 100 µM	63.8	> 100	26	> 100 µM	> 100 µM	94.6
O=[N+]([O-])c1ccc(O)c2ncccc12	–	> 100 µM and 15.2 µM	–	> 100 µM and 17.9 µM	–	> 100 µM and 19.1 µM	–	–	–	> 100 µM and 58.1 µM	–	> 100 µM and 40.5 µM	–	> 100 µM and 12.9 µM	3.55	17.4	–	> 100 µM and 24 µM	> 100 µM and 16.5 µM	–
Clc1ccc(-c2cn(-c3ccccc3)c(-c3ccccc3)n2)c(Cl)c1	0.892	2.09 µM	> 18.5	> 50 µM	3.18	> 31.5 µM	0.861	1.73	4.09	> 30.1 µM	> 16	> 45.1 µM	1.77	–	1.32	6.92	3.42	> 50 µM	4.4 µM	1.2
Oc1ccc(-c2nc3ccc4[nH]ncc4c3c3c2CCCC3)c2cccnc12	0.5	8.13 µM	0.329	2.24 µM	0.148	10.8 µM	0.491	7.3	0.206	6.79 µM	1.16	14.7 µM	0.134	2.14 µM	0.523	2.61	0.421	2.58 µM	0.886 µM	0.12
C=C1C(=O)O[C@H]2[C@H]1CC/C(COC(=O)C(=O)c1cn(C)c3ccc(OC)cc13)=C\CC[C@@]1(C)O[C@@H]21	6.67	15.5 µM	8.19	16.3 µM	6.76	20.4 µM	1.86	3.42	6.1	12.8 µM	6.12	13.6 µM	7.61	14.2 µM	5.62	9.91	1.75	3.28 µM	21.8 µM	7.25
CC(C)[C@@H](CS(=O)(=O)C(C)C)N1C(=O)[C@@](C)(CC(=O)O)C[C@H](c2cccc(Cl)c2)[C@H]1c1ccc(Cl)cc1	21.8	> 100 µM	11.9	> 100 µM	13.5	> 100 µM	12.4	33	19.8	> 70.5 µM	25.7	> 100 µM	0.464	19.8 µM	0.178	6.91	12.9	40.3 µM	32.8 µM	0.378
Cc1ccccc1NC(=O)c1sc2nc3c(cc2c1N)C(=O)CCC3	2.7	8.41 µM	6.82	> 100 µM	4.89	> 100 µM	1.76	4.45	5.53	> 100 µM	6.82	> 100 µM	2.22	> 100 µM	3.54	> 100	6.58	> 100 µM	> 100 µM	6.74
Cc1ccc(-n2c(-c3ccc(Cl)cc3)cs/c2=N\NC(=O)COc2n[nH]c(=O)c3ccccc23)cc1	> 100	> 100 µM	59.6	> 100 µM	16.6	> 100 µM	> 100	> 100	78.1	> 100 µM	> 100	> 100 µM	> 100	> 100 µM	31.9	> 100	> 100	> 100 µM	72.7 µM	25.7
COc1cccc2c1C(=O)c1c(O)c3c(c(O)c1C2=O)C[C@@](O)(/C(C)=N\O)C[C@@H]3OC1CC(N)C(O)C(C)O1 (stereo not given in full)	–	5.74 µM	–	19.5 µM	–	11.8 µM	–	8.58	–	13.1 µM	–	12.2 µM	–	6.22 µM	–	2.41	–	5.65 µM	22.6 µM	–
CCCCC#Cc1cccc(=O)o1	29.5	> 100 µM	12.4	> 100 µM	> 100	> 100 µM	5.23	> 100	–	–	> 100	> 100 µM	45.6	> 100 µM	57.4	> 100	> 100	> 100 µM	> 100 µM	> 100
COc1cc2c3c(n(C)c(=O)c2cc1OC)-c1cc2c(cc1/C3=C\[C@@H](N)CCCCN)OCO2	0.717	37 µM	4.56	75.9 µM	2.66	> 45.8 µM	3.83	58.9	0.46	6.95 µM	5.14	> 100 µM	0.381	–	1.84	13.3	4.52	28.3 µM	> 75.1 µM	4.26
C[C@@]12CCC[C@@](C)(C(=O)O)C1CC[C@@]13CC(=O)[C@@](CO)(CCC12)C3 (stereo not given in full)	> 100	> 100 µM	> 100	> 100 µM	> 100	> 100 µM	> 100	> 100	> 100	> 100 µM	> 100	> 100 µM	> 100	> 100 µM	> 100	> 100	> 100	> 100 µM	> 100 µM	> 100
COC(=O)[C@]12CC[C@@H](C)[C@H](C)[C@@H]1C1=CC[C@@H]3[C@@]4(C)C=C(O)C(=O)C(C)=C4CC[C@@]3(C)[C@]1(C)CC2	15.2	33.3 µM	4.96	19.5 µM	16.9	39.4 µM	11.6	24.5	19.2	50.4 µM	17.8	38.6 µM	15.1	31.2 µM	22.4	42.8	15.5	37.4 µM	31.4 µM	12.4
N#CC(=S)Nc1ccc(F)cc1	–	> 100 µM	–	> 100 µM	–	> 100 µM	–	> 100	–	> 100 µM	–	> 100 µM	–	> 100 µM	–	> 100	–	> 100 µM	> 100 µM	–
C=C1CO[C@@H]2C[C@@H]1CCC1(C)OC1CC/C(C)=C/CC[C@@]2(C)O (stereo not given in full)	16.1	31.2 µM	18.7	43.9 µM	39.8	> 100 µM	16.9	33	25.6	67.8 µM	> 100	> 100 µM	17	34.9 µM	48.8	> 100	26.4	61.5 µM	44 µM	20
O=C(CC(=O)c1ccccc1NC1=Cc2ccccc2C(=O)C1=O)C(=O)NC1=C(Cl)C(=O)c2ccccc2C1=O	–	16.1 µM	–	22.4 µM	–	12.2 µM	–	7.05	–	3.67 µM	–	12.6 µM	–	16.5 µM	–	2.49	–	9.14 µM	24.1 µM	–
O=C1C=C(Nc2nc(C(=O)O)cc(=O)[nH]2)c2ccccc2C1=O	–	> 100 µM	–	> 100 µM	–	> 100 µM	–	> 100	–	> 100 µM	–	> 100 µM	–	> 100 µM	–	> 100	–	> 100 µM	> 100 µM	–
CC1(C)CC[C@]2(C(=O)O)CC[C@]3(C)[C@H](CC[C@@H]4[C@@]5(C)CCC(=O)C(C)(C)[C@@H]5CC[C@]43C)[C@H]2[C@H]1OC(=O)C(F)(F)F	14.1	34 µM	14.5	30.5 µM	12.9	30.1 µM	12.4	26.4	11.5	24.8 µM	15.7	30.7 µM	9.66	31.6 µM	12.9	30.7	9.3	22.3 µM	25.7 µM	12.8
CCOC(=O)c1cnc2c(cnn2CC)c1NN=C(C)C	29.5	> 100 µM	20.6	> 100 µM	55.1	> 100 µM	39.5	> 100	38.2	> 100 µM	26.6	> 100 µM	40.1	> 100 µM	> 100	> 100	46.5	> 100 µM	> 100 µM	22.9
COP1(=S)OCC2CCC[C@@H]2O1 (stereo not given in full)	–	> 100 µM	–	–	–	> 100 µM	–	> 100	–	> 100 µM	–	> 100 µM	–	> 100 µM	–	> 100	–	> 100 µM	> 100 µM	–
